Patent US20260262643A1, “HERBICIDAL BENZOXAZINES” (FMC CORPORATION, priority 2022, published 2026)

Key:
[1] = tested on: soybean; test: Test C postemergence; format: in vivo, Glycine max; details: 10 days
Procedure, shortened: (§1)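 Greenhouse herbicide screen, 10-day duration. Test chemicals in solvent/surfactant blend were sprayed onto soil at sowing (pre) or onto 2–10 cm seedlings at one to two leaves (post); injury scored visually against controls, 0 no effect to 100 complete control.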

[2] = tested on: corn; test: Test C postemergence; format: in vivo, Zea mays; details: 10 days
Procedure, shortened: as §1

[3] = tested on: horseweed; test: Test C postemergence; format: in vivo, Erigeron canadensis; details: 10 days
Procedure, shortened: as §1

[4] = tested on: blackgrass; test: Test C postemergence; format: in vivo, Alopecurus myosuroides; details: 10 days
Procedure, shortened: as §1

[5] = tested on: galium; test: Test C postemergence; format: in vivo, Galium aparine; details: 10 days
Procedure, shortened: as §1

[6] = tested on: sedge, umbrella; test: Test D flooded paddy test; format: in vivo, Cyperus difformis; details: 250 g ai/ha, applied to paddy water, visual rating after 13 to 14 days, scale 0 to 100 (0 no effect, 100 complete control)
Procedure, shortened: (§2)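 Plants at the 2-leaf stage were grown in pots flooded to 3 cm, and compound was applied directly into the paddy water, with depth kept throughout. After 13–14 days in a greenhouse, injury was rated visually against untreated controls on a 0–100 scale (100 = complete control); a dash means not tested.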

[7] = tested on: wheat; test: Test C preemergence; format: in vivo, Triticum aestivum; details: 0 to 100 scale (0 no effect, 100 complete control); for Plant response rating, Wheat: Preemergence, 500 g ai/ha, visual rating after 10 days; for Wheat plant response rating: Test C, preemergence, 125 g ai/ha
Procedure, shortened: as §1

[8] = tested on: kochia; test: Test C postemergence; format: in vivo, Bassia scoparia; details: 10 days
Procedure, shortened: as §1

[9] = tested on: pigweed, palmer; test: Test C postemergence; format: in vivo, Amaranthus palmeri; details: 10 days
Procedure, shortened: as §1

[10] = tested on: barnyardgrass; test: Test D flooded paddy test; format: in vivo, Echinochloa crus-galli; details: 250 g ai/ha, applied to paddy water, visual rating after 13 to 14 days, scale 0 to 100 (0 no effect, 100 complete control)
Procedure, shortened: as §2

[11] = tested on: ragweed; test: Test C preemergence; format: in vivo, Ambrosia artemisiifolia; details: 0 to 100 scale (0 no effect, 100 complete control); for Plant response rating, Ragweed: Preemergence, 500 g ai/ha, visual rating after 10 days; for Ragweed plant response rating: Test C, preemergence, 125 g ai/ha
Procedure, shortened: as §1

[12] = tested on: pigweed, palmer; test: Test C preemergence; format: in vivo, Amaranthus palmeri; details: 0 to 100 scale (0 no effect, 100 complete control); for Plant response rating, Pigweed, Palmer: Preemergence, 500 g ai/ha, visual rating after 10 days; for Pigweed, Palmer plant response rating: Test C, preemergence, 125 g ai/ha
Procedure, shortened: as §1

[13] = tested on: ryegrass, Italian; test: Test C preemergence; format: in vivo, Lolium multiflorum; details: 0 to 100 scale (0 no effect, 100 complete control); for Plant response rating, Ryegrass, Italian: Preemergence, 500 g ai/ha, visual rating after 10 days; for Ryegrass, Italian plant response rating: Test C, preemergence, 125 g ai/ha
Procedure, shortened: as §1

[14] = tested on: green foxtail; test: Test C postemergence; format: in vivo, Setaria viridis; details: 10 days
Procedure, shortened: as §1

[15] = tested on: kochia; test: Test C preemergence; format: in vivo, Bassia scoparia; details: 0 to 100 scale (0 no effect, 100 complete control); for Plant response rating, Kochia: Preemergence, 500 g ai/ha, visual rating after 10 days; for Kochia plant response rating: Test C, preemergence, 125 g ai/ha
Procedure, shortened: as §1

[16] = tested on: ducksalad; test: Test D flooded paddy test; format: in vivo, Heteranthera limosa; details: 250 g ai/ha, applied to paddy water, visual rating after 13 to 14 days, scale 0 to 100 (0 no effect, 100 complete control)
Procedure, shortened: as §2

[17] = tested on: barnyardgrass; test: Test C preemergence; format: in vivo, Echinochloa crusgalli; details: 0 to 100 scale (0 no effect, 100 complete control); for Plant response rating, Barnyardgrass: Preemergence, 500 g ai/ha, visual rating after 10 days; for Barnyardgrass plant response rating: Test C, preemergence, 125 g ai/ha
Procedure, shortened: as §1

[18] = tested on: ryegrass, Italian; test: Test C postemergence; format: in vivo, Lolium multiflorum; details: 10 days
Procedure, shortened: as §1

[19] = tested on: corn; test: Test C preemergence; format: in vivo, Zea mays; details: 0 to 100 scale (0 no effect, 100 complete control); for Plant response rating, Corn: Preemergence, 500 g ai/ha, visual rating after 10 days; for Corn plant response rating: Test C, preemergence, 125 g ai/ha
Procedure, shortened: as §1

[20] = tested on: oat, wild; test: Test C postemergence; format: in vivo, Avena fatua; details: 10 days
Procedure, shortened: as §1

[21] = tested on: rice; test: Test D flooded paddy test; format: in vivo, Oryza sativa; details: 250 g ai/ha, applied to paddy water, visual rating after 13 to 14 days, scale 0 to 100 (0 no effect, 100 complete control)
Procedure, shortened: as §2

[22] = tested on: barnyardgrass; test: Test C postemergence; format: in vivo, Echinochloa crusgalli; details: 10 days
Procedure, shortened: as §1

[23] = tested on: oat, wild; test: Test C preemergence; format: in vivo, Avena fatua; details: 0 to 100 scale (0 no effect, 100 complete control); for Plant response rating, Oat, Wild: Preemergence, 500 g ai/ha, visual rating after 10 days; for Oat, Wild plant response rating: Test C, preemergence, 125 g ai/ha
Procedure, shortened: as §1

[24] = tested on: soybean; test: Test C preemergence; format: in vivo, Glycine max; details: 0 to 100 scale (0 no effect, 100 complete control); for Plant response rating, Soybean: Preemergence, 500 g ai/ha, visual rating after 10 days; for Soybean plant response rating: Test C, preemergence, 125 g ai/ha
Procedure, shortened: as §1

[25] = tested on: wheat; test: Test C postemergence; format: in vivo, Triticum aestivum; details: 10 days
Procedure, shortened: as §1

[26] = tested on: ragweed; test: Test C postemergence; format: in vivo, Ambrosia artemisiifolia; details: 10 days
Procedure, shortened: as §1

[27] = tested on: green foxtail; test: Test C preemergence; format: in vivo, Setaria viridis; details: 0 to 100 scale (0 no effect, 100 complete control); for Plant response rating, Foxtail, Green: Preemergence, 500 g ai/ha, visual rating after 10 days; for Foxtail, Green plant response rating: Test C, preemergence, 125 g ai/ha
Procedure, shortened: as §1

[28] = tested on: blackgrass; test: Test C preemergence; format: in vivo, Alopecurus myosuroides; details: 0 to 100 scale (0 no effect, 100 complete control); for Plant response rating, Blackgrass: Preemergence, 500 g ai/ha, visual rating after 10 days; for Blackgrass plant response rating: Test C, preemergence, 125 g ai/ha
Procedure, shortened: as §1

[29] = 125 g ai/ha, postemergence, 0 to 100 scale, 0 no effect, 100 complete control
[30] = Postemergence, 500 g ai/ha, visual 0 to 100 scale (0 no effect, 100 complete control)

CC(C)c1ncn(-c2cc3c(c(C(=O)N4C[C@H](C)Oc5c(Cl)cccc54)c2)CCC3)n1 [Compound 174]
50: Plant response rating, Ryegrass, Italian [18, 29] | Plant response rating, Corn [19] | Plant response rating, Oat, Wild [20, 29] | Plant response rating, Barnyardgrass [22, 29]
30: Plant response rating, Horseweed [3, 30]
20: Oat, Wild plant response rating [23] | Plant response rating, Wheat [25, 29]
40: Plant response rating, Wheat [25, 30]
80: Plant response rating, Corn [2, 30] | Ryegrass, Italian plant response rating [13] | Barnyardgrass plant response rating [17] | Plant response rating, Oat, Wild [23] | Plant response rating, Blackgrass [28]
10: Plant response rating, Wheat [7] | Plant response rating, Ragweed [11] | Corn plant response rating [19]
100: Plant response rating, Soybean [1, 29] | Plant response rating, Soybean [1, 30] | Plant response rating, Galium [5, 29] | Plant response rating, Galium [5, 30] | Plant response rating, Kochia [8, 30] | Plant response rating, Pigweed, Palmer [9, 30] | Plant response rating, Pigweed, Palmer [12] | Pigweed, Palmer plant response rating [12] | Plant response rating, Barnyardgrass [17] | Plant response rating, Soybean [24] | Plant response rating, Foxtail, Green [27] | Foxtail, Green plant response rating [27]
90: Plant response rating, Blackgrass [4, 30] | Plant response rating, Kochia [8, 29] | Plant response rating, Pigweed, Palmer [9, 29] | Plant response rating, Ryegrass, Italian [13] | Plant response rating, Foxtail, Green [14, 30] | Plant response rating, Kochia [15]
70: Plant response rating, Corn [2, 29] | Plant response rating, Foxtail, Green [14, 29] | Kochia plant response rating [15] | Plant response rating, Ryegrass, Italian [18, 30] | Plant response rating, Oat, Wild [20, 30] | Soybean plant response rating [24] | Plant response rating, Ragweed [26, 30] | Blackgrass plant response rating [28]
0: Plant response rating, Horseweed [3, 29] | Plant response rating, Sedge, Umbrella (Flood) [6] | Wheat plant response rating [7] | Plant response rating, Barnyardgrass (Flood) [10] | Ragweed plant response rating [11] | Plant response rating, Ducksalad (Flood) [16] | Plant response rating, Rice (Flood) [21]
60: Plant response rating, Blackgrass [4, 29] | Plant response rating, Barnyardgrass [22, 30] | Plant response rating, Ragweed [26, 29]

Cc1ccc(-n2cnc(C3(C(F)(F)F)CC3)n2)cc1C(=O)N1C[C@H](C)Oc2c(Cl)cccc21 [Compound 175]
60: Plant response rating, Horseweed [3, 30] | Plant response rating, Ryegrass, Italian [18, 30] | Soybean plant response rating [24]
10: Plant response rating, Blackgrass [4, 29] | Plant response rating, Oat, Wild [20, 29] | Plant response rating, Wheat [25, 29] | Plant response rating, Wheat [25, 30] | Plant response rating, Blackgrass [28]
40: Kochia plant response rating [15]
50: Plant response rating, Blackgrass [4, 30] | Plant response rating, Ryegrass, Italian [18, 29] | Plant response rating, Barnyardgrass [22, 30] | Plant response rating, Oat, Wild [23]
100: Plant response rating, Soybean [1, 29] | Plant response rating, Soybean [1, 30] | Plant response rating, Kochia [8, 30] | Plant response rating, Pigweed, Palmer [12] | Pigweed, Palmer plant response rating [12] | Plant response rating, Kochia [15] | Plant response rating, Barnyardgrass [17] | Plant response rating, Foxtail, Green [27]
0: Plant response rating, Corn [2, 29] | Plant response rating, Sedge, Umbrella (Flood) [6] | Plant response rating, Barnyardgrass (Flood) [10] | Plant response rating, Ducksalad (Flood) [16] | Corn plant response rating [19] | Plant response rating, Rice (Flood) [21] | Blackgrass plant response rating [28]
20: Plant response rating, Corn [2, 30] | Plant response rating, Wheat [7] | Wheat plant response rating [7] | Ragweed plant response rating [11] | Plant response rating, Corn [19] | Plant response rating, Oat, Wild [20, 30] | Plant response rating, Barnyardgrass [22, 29] | Oat, Wild plant response rating [23] | Plant response rating, Ragweed [26, 29]
80: Plant response rating, Horseweed [3, 29] | Ryegrass, Italian plant response rating [13]
70: Plant response rating, Ragweed [11] | Plant response rating, Foxtail, Green [14, 30] | Barnyardgrass plant response rating [17] | Plant response rating, Ragweed [26, 30]
90: Plant response rating, Galium [5, 29] | Plant response rating, Galium [5, 30] | Plant response rating, Kochia [8, 29] | Plant response rating, Pigweed, Palmer [9, 29] | Plant response rating, Pigweed, Palmer [9, 30] | Plant response rating, Ryegrass, Italian [13] | Plant response rating, Soybean [24] | Foxtail, Green plant response rating [27]
30: Plant response rating, Foxtail, Green [14, 29]

COc1c(F)cc(-n2cnc(C(C)C)n2)cc1C(=O)N1C[C@H](C)Oc2c(Cl)cccc21 [Compound 177]
30: Plant response rating, Horseweed [3, 29] | Wheat plant response rating [7] | Plant response rating, Corn [19] | Corn plant response rating [19] | Plant response rating, Barnyardgrass [22, 29] | Plant response rating, Wheat [25, 29]
100: Plant response rating, Soybean [1, 29] | Plant response rating, Soybean [1, 30] | Plant response rating, Galium [5, 30] | Plant response rating, Kochia [8, 30] | Plant response rating, Pigweed, Palmer [9, 30] | Plant response rating, Pigweed, Palmer [12] | Pigweed, Palmer plant response rating [12] | Plant response rating, Ryegrass, Italian [13] | Ryegrass, Italian plant response rating [13] | Plant response rating, Kochia [15] | Plant response rating, Barnyardgrass [17] | Barnyardgrass plant response rating [17] | Plant response rating, Foxtail, Green [27] | Foxtail, Green plant response rating [27]
95: Plant response rating, Sedge, Umbrella (Flood) [6]
80: Plant response rating, Horseweed [3, 30] | Kochia plant response rating [15] | Plant response rating, Ryegrass, Italian [18, 29] | Plant response rating, Oat, Wild [20, 30] | Oat, Wild plant response rating [23] | Plant response rating, Ragweed [26, 29]
35: Plant response rating, Barnyardgrass (Flood) [10]
90: Plant response rating, Blackgrass [4, 29] | Plant response rating, Blackgrass [4, 30] | Plant response rating, Galium [5, 29] | Plant response rating, Kochia [8, 29] | Plant response rating, Pigweed, Palmer [9, 29] | Plant response rating, Ragweed [11] | Ragweed plant response rating [11] | Plant response rating, Foxtail, Green [14, 29] | Plant response rating, Foxtail, Green [14, 30] | Plant response rating, Ryegrass, Italian [18, 30] | Plant response rating, Oat, Wild [23] | Plant response rating, Soybean [24]
70: Plant response rating, Barnyardgrass [22, 30] | Plant response rating, Ragweed [26, 30]
40: Plant response rating, Corn [2, 29] | Blackgrass plant response rating [28]
0: Plant response rating, Rice (Flood) [21]
50: Plant response rating, Ducksalad (Flood) [16] | Plant response rating, Wheat [25, 30]
60: Plant response rating, Corn [2, 30] | Plant response rating, Wheat [7] | Plant response rating, Oat, Wild [20, 29] | Soybean plant response rating [24] | Plant response rating, Blackgrass [28]
